The data set can be described thus: release of chlorhexidine dihydrochloride from the pocketed TFE/PMVE film composite in PBS, with needle puncture. The data set is classed as physicochemical. Conditions: 1 cm by 1 cm composite in PBS at 37° C., punctured with 16-gauge needle. The source says:
A polypropylene template with 0.7 mm diameter holes arranged in a rectangle pattern was made to facilitate manufacturing of the device. The holes were evenly spaced approximately 2 mm apart, from edge to edge. This template was placed on top of one of the TFE/PMVE extruded sheets, then dusted with chlorhexidine dihydrochloride. The template was removed, leaving a dot-matrix pattern of the drug on the surface of the extruded film. A second sheet of extruded polymer was gently placed on top of the first sheet. The composite of polymer sheets and drug was wrapped in aluminum foil, placed between two metal plates, heated in an oven set at 115° C. for 15 minutes, removed from the oven, immediately pressed between the two hot metal plates for 15 minutes, and then removed from the metal plates and aluminum foil. This process created encapsulated drug pockets between the polymer films. An approximately 1 cm by 1 cm square of finished material was placed into phosphate buffered saline (PBS) at 37° C., periodically sampled for antimicrobial content, and punctured with a 16-gauge needle. The release of the chlorhexidine dihydrochloride as a function of puncturing the composite and time in solution is shown in FIG. 7C. […] Thus, an additional dose of the drug can be delivered on demand as a consequence of puncturing drug pockets.

Where a name gives a salt, the structure may show the parent alone.

On to `[H]/N=C(\N/C(=N/[H])NCCCCCCNC(=N)NC(=N)Nc1ccc(Cl)cc1)Nc1ccc(Cl)cc1` [chlorhexidine dihydrochloride], for which the “release of chlorhexidine dihydrochloride as a function of puncturing and time in solution” value is “continuously released at a minimal level until the composite was punctured with the needle”.

(Values after US8048440B2, “Thermoplastic fluoropolymer-coated medical devices” (Gore Enterprise Holdings, Inc., priority 2002, dated 2011).)
